# Assay results from US20090074844A1, “TRENADERMAL ABSORPTION PREPARATION” (ONO PHARMACEUTICAL CO., LTD., priority 2005, published 2009).
# Experiments:
# [1] = In vitro skin permeability test (1), Franz type cell; format: in vitro ADME, rat; conditions: for cumulative permeation quantity until 24 hours: patch (pharmaceutical preparation 1A, 0.2 mg/cm^2) on rat abdominal skin, determined as compound B or PGE1, FIG. 1
# Experimental: The hair-removed skin extracted from the abdominal region of each of male Wister rats (7 weeks of age, Wister/Slc, n=3) was attached to a Franz type cell (1.1 cm in diameter). The aforementioned pharmaceutical preparation 1A prepared in Example 1 was applied to the stratum corneum of the hair-removed skin extracted from the abdominal region. Hanks' buffer (HBSS) (Sigma, pH 7.4) was applied to the dermal layer side cell. HBSS (200 μL) was periodically collected from the dermal layer side cell, and compound B as the active form of compound A or PGE1 was determined by the HPLC method under the following conditions. Cumulative permeation quantities until 24 hours were determined to calculate average values.
# Compound A (Active Form: Compound B)
# Column: YMC-Pack ODS A-302 (4.6 mm I.d., 150 mm),
# Column temperature: 50° C.,
# Moving bed: 0.1% phosphoric acid aqueous solution: acetonitrile=7:3,
# Detection wavelength: 220 nm,
# Internal standard: ethyl p-hydroxybenzoate.
# Column temperature: 30° C.,
# Moving bed: 0.02 M potassium hydrogenphosphate aqueous solution:acetonitrile=3:2,
# Detection wavelength: 205 nm,
# Internal standard: n-propyl p-hydroxybenzoate.
# FIG. 1 is a result of the in vitro skin permeability test (1) in Test Example (1) of Biological Examples. The cumulative permeation quantity of compound A represents a value calculated by converting the detected value of compound B into compound A.
# [2] = Drug permeability test using human skin, Franz type cell, LC/MS/MS; format: in vitro ADME; conditions: preparation of Example 3 (70 μg/cm^2, oleyl alcohol), slope of cumulative permeation quantities, FIG. 4, n=3
# Experimental: Drug permeability test using human skin Human skin purchased from Asterand (abdominal skin of a person, epidermal-dermal skin (no heat treatment), n=3) was attached to a Franz type cell (1.78 cm^2), and the pharmaceutical preparation produced in Example 3 was applied to the stratum corneum side. Physiological saline (8 ml) was applied to the dermal layer side cell. From the dermal layer side cell, 1 ml portion thereof was periodically collected, and the compound A and compound B were determined by LC/MS/MS method under the following conditions. Cumulative permeation quantities until 48 hours were determined to calculate average values.
# LC/MS/MS Measuring Conditions (HPLC)
# Measuring instrument: Perkin-Elmer Series 200 Micro-pumps and CTC […]
# Flow rate: 300 μl/minute Injection quantity: 5 μl Running time: 4.5 minutes Retention time: compound A; until 3.45 minutes/compound B; until 3.25 minutes Mass spectrometry […]
# Human skin permeability of compound A and compound B which is its active form was measured to calculate the cumulative permeation quantities, with the results shown in FIG. 4. Their skin permeation rates were calculated from the slope of cumulative permeation quantities in FIG. 4. […]
# FIG. 4 is a result of a human skin permeability test which used the pharmaceutical preparations produced in Example 3. It represents cumulatively detected amounts of compound A and compound B.
skin permeation rate [2] [μg/cm^2/hr],"conversion of compound A into the active form, compound B, during permeation through the skin ([1]; patch preparation 1A on rat abdominal skin)","compound A in the dermal layer side cell ([1]; patch preparation 1A on rat abdominal skin, HBSS pH 7.4)",Compound,cumulative permeation quantity until 24 hours ([1]; HBSS pH 7.4)
,,,"CCCCC[C@H](O)/C=C/[C@H]1[C@H](O)CC(=O)[C@@H]1CCCCCCC(=O)O [PGE1, reference compound]",high cumulative permeation quantity was not obtained
0.16±0.04,completely converted,not detected,"COCc1cccc(C[C@H](O)/C=C/[C@H]2[C@H](O)CC(=O)[C@@H]2CCSCCCC(=O)OC)c1 [compound A, methyl 4-{[2-((1R,2R,3R)-3-hydroxy-2-{(1E,3S)-3-hydroxy-4-[3-(methoxymethyl)phenyl]but-1-enyl}-5-oxocyclopentyl)ethyl]sulfanyl}butanoate]",high cumulative permeation quantity was obtained
0.07±0.01,,,"COCc1cccc(C[C@H](O)/C=C/[C@H]2[C@H](O)CC(=O)[C@@H]2CCSCCCC(=O)O)c1 [compound B, 4-{[2-((1R,2R,3R)-3-hydroxy-2-{(1E,3S)-3-hydroxy-4-[3-(methoxymethyl)phenyl]but-1-enyl}-5-oxocyclopentyl)ethyl]sulfanyl}butanoic acid]",
